Experimental data taken from patent publication US20240025884A1 (Dong-A ST Co., Ltd., priority 2022, published 2024).

The compounds below were run against GCN2 (Homo sapiens (Human), UniProt Q9P2K8) (assay: GCN2 Biochemical Assay (TR-FRET, GFP-eIF2S1 substrate phosphorylation)). Details: read-out: IC50 (GCN2 Inhibitory Activity).
Sequence of GCN2 (Q9P2K8 whole entry): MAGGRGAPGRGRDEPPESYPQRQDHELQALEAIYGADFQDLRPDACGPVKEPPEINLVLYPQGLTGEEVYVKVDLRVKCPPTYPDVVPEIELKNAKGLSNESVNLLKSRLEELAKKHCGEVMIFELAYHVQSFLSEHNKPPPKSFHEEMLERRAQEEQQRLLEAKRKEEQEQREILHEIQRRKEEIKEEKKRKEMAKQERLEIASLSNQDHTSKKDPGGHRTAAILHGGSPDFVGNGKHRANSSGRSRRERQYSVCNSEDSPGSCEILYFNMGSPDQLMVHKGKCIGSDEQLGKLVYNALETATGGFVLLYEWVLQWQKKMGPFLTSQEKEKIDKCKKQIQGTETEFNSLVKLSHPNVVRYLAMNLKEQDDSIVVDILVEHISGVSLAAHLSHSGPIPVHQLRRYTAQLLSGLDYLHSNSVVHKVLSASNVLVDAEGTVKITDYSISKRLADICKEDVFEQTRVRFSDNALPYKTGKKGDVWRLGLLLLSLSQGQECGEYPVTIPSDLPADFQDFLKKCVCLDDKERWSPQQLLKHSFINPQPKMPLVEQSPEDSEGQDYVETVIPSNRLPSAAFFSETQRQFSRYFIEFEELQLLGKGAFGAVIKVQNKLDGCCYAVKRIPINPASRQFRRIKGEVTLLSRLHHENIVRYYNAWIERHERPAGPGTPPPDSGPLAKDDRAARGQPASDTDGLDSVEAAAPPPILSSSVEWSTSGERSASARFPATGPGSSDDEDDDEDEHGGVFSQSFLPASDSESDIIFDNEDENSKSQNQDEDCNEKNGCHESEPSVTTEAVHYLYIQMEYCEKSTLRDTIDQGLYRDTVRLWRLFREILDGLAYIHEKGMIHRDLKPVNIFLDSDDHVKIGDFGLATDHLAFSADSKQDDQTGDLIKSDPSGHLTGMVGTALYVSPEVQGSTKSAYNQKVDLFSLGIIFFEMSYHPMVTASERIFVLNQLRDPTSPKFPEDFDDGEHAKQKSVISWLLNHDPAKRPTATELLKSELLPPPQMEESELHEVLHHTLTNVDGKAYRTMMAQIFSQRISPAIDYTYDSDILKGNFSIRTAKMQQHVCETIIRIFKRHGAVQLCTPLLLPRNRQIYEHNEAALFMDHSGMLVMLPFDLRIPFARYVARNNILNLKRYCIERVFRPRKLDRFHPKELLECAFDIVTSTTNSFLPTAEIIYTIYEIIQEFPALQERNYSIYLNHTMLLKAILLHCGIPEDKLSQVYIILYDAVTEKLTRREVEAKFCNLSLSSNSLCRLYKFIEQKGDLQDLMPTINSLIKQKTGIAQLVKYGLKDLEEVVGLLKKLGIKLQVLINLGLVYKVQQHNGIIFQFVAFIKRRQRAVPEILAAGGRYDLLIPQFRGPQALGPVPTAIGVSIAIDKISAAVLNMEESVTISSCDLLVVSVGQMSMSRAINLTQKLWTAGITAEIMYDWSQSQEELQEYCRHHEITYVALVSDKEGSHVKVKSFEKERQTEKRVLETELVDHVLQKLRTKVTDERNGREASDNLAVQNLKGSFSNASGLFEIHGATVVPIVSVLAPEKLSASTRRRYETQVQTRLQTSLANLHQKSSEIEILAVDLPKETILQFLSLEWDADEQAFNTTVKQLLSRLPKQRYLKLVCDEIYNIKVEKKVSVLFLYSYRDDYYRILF
Method in brief: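 In-house GCN2 (1.6 nM 2× stock) phosphorylates GFP-eIF2S1 (50 nM 2× stock) with ATP (0.2 mM 2× stock) and tRNA, pH 7.5, 70 min at room temperature; 10-point 3.16-fold compound series. TR-FRET detection with Tb-anti-phospho antibody, 2–3 h, Ex 340/Em 490/520 nm; artifact plate spiked with phospho-substrate.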
`Cc1nc(C(=O)Nc2cccc3c2CN(c2cccc4c(-c5nc(Nc6cc(C)n(C)n6)ncc5C)c[nH]c24)C3=O)co1` [Example 322, N-(2-(3-(2-((1,5-dimethyl-1H-pyrazol-3-yl)amino)-5-methylpyrimidin-4-yl)-1H-indol-7-yl)-1-oxoisoindolin-4-yl)-2-methyloxazole-4-carboxamide] was tested, and the IC50 was under 10 nM. `Cc1cnc(Nc2cc(C)n(C)n2)nc1-c1c[nH]c2c(N3Cc4c(NC(=O)c5cnco5)cccc4C3=O)cccc12` [Example 323, N-(2-(3-(2-((1,5-dimethyl-1H-pyrazol-3-yl)amino)-5-methylpyrimidin-4-yl)-1H-indol-7-yl)-1-oxoisoindolin-4-yl)oxazole-5-carboxamide] gave an IC50 of under 10 nM. For `Cc1cnc(Nc2cc(C)n(C)n2)nc1-c1c[nH]c2c(N3Cc4c(NC(=O)c5ccon5)cccc4C3=O)cccc12` [Example 324, N-(2-(3-(2-((1,5-dimethyl-1H-pyrazol-3-yl)amino)-5-methylpyrimidin-4-yl)-1H-indol-7-yl)-1-oxoisoindolin-4-yl)isoxazole-3-carboxamide], the IC50 was 10 to 100 nM. `Cc1cc(C(=O)Nc2cccc3c2CN(c2cccc4c(-c5nc(Nc6cc(C)n(C)n6)ncc5C)c[nH]c24)C3=O)no1` [Example 325, N-(2-(3-(2-((1,5-dimethyl-1H-pyrazol-3-yl)amino)-5-methylpyrimidin-4-yl)-1H-indol-7-yl)-1-oxoisoindolin-4-yl)-5-methylisoxazole-3-carboxamide] showed an IC50 of 10 to 100 nM. `Cc1cnc(Nc2cc(C)n(C)n2)nc1-c1c[nH]c2c(N3Cc4c(NC(=O)C5CCOC5)cccc4C3=O)cccc12` (stereo not shown) [Example 326, N-(2-(3-(2-((1,5-dimethyl-1H-pyrazol-3-yl)amino)-5-methylpyrimidin-4-yl)-1H-indol-7-yl)-1-oxoisoindolin-4-yl)tetrahydrofuran-3-carboxamide] gave an IC50 of under 10 nM. For `Cc1cnc(Nc2cc(C)n(C)n2)nc1-c1c[nH]c2c(N3Cc4c(NC(=O)C5CCCOC5)cccc4C3=O)cccc12` (stereo not shown) [Example 327, N-(2-(3-(2-((1,5-dimethyl-1H-pyrazol-3-yl)amino)-5-methylpyrimidin-4-yl)-1H-indol-7-yl)-1-oxoisoindolin-4-yl)tetrahydro-2H-pyran-3-carboxamide], the IC50 was under 10 nM. `Cc1cnc(Nc2cc(C)n(C)n2)nc1-c1c[nH]c2c(N3Cc4c(NC(=O)C5(C)CCOCC5)cccc4C3=O)cccc12` [Example 328, N-(2-(3-(2-((1,5-dimethyl-1H-pyrazol-3-yl)amino)-5-methylpyrimidin-4-yl)-1H-indol-7-yl)-1-oxoisoindolin-4-yl)-4-methyltetrahydro-2H-pyran-4-carboxamide] was tested, and the IC50 was under 10 nM. For `Cc1cnc(Nc2cc(C)n(C)n2)nc1-c1c[nH]c2c(N3Cc4c(NC(=O)C5CCCC(C)C5)cccc4C3=O)cccc12` (stereo not shown) [Example 329, N-(2-(3-(2-((1,5-dimethyl-1H-pyrazol-3-yl)amino)-5-methylpyrimidin-4-yl)-1H-indol-7-yl)-1-oxoisoindolin-4-yl)-3-methylcyclohexane-1-carboxamide], the IC50 was 100 to 1000 nM. With `CC1=CCC(C(=O)Nc2cccc3c2CN(c2cccc4c(-c5nc(Nc6cc(C)n(C)n6)ncc5C)c[nH]c24)C3=O)CC1` (stereo not shown) [Example 330, N-(2-(3-(2-((1,5-dimethyl-1H-pyrazol-3-yl)amino)-5-methylpyrimidin-4-yl)-1H-indol-7-yl)-1-oxoisoindolin-4-yl)-4-methylcyclohex-3-ene-1-carboxamide] the IC50 was 10 to 100 nM. For `Cc1cnc(Nc2cc(C)n(C)n2)nc1-c1c[nH]c2c(N3Cc4c(NC(=O)[C@H]5C[C@H](N)CN5)cccc4C3=O)cccc12` [Example 331, (2R,4S)-4-amino-N-(2-(3-(2-((1,5-dimethyl-1H-pyrazol-3-yl)amino)-5-methylpyrimidin-4-yl)-1H-indol-7-yl)-1-oxoisoindolin-4-yl)pyrrolidine-2-carboxamide], the IC50 was under 10 nM. In the case of `Cc1cnc(Nc2cc(C)n(C)n2)nc1-c1c[nH]c2c(N3Cc4c(NC(=O)C5(C)CCCNC5)cccc4C3=O)cccc12` (stereo not shown) [Example 332, N-(2-(3-(2-((1,5-dimethyl-1H-pyrazol-3-yl)amino)-5-methylpyrimidin-4-yl)-1H-indol-7-yl)-1-oxoisoindolin-4-yl)-3-methylpiperidine-3-carboxamide], the IC50 is reported as under 10 nM. Compound `Cc1cnc(Nc2cc(C)n(C)n2)nc1-c1c[nH]c2c(N3Cc4c(NC(=O)[C@@H]5CCN(C)C5)cccc4C3=O)cccc12` [Example 333, (R)-N-(2-(3-(2-((1,5-dimethyl-1H-pyrazol-3-yl)amino)-5-methylpyrimidin-4-yl)-1H-indol-7-yl)-1-oxoisoindolin-4-yl)-1-methylpyrrolidine-3-carboxamide] has an IC50 of under 10 nM. In the case of `Cc1cncc(C(=O)Nc2cccc3c2CN(c2cccc4c(-c5nc(Nc6cc(C)n(C)n6)ncc5C)c[nH]c24)C3=O)c1` [Example 334, N-(2-(3-(2-((1,5-dimethyl-1H-pyrazol-3-yl)amino)-5-methylpyrimidin-4-yl)-1H-indol-7-yl)-1-oxoisoindolin-4-yl)-5-methylnicotinamide], the IC50 is reported as 10 to 100 nM. In the case of `Cc1cnc(Nc2cc(C)n(C)n2)nc1-c1c[nH]c2c(N3Cc4c(NC(=O)CN(C)C)cccc4C3=O)cccc12` [Example 335, N-(2-(3-(2-((1,5-dimethyl-1H-pyrazol-3-yl)amino)-5-methylpyrimidin-4-yl)-1H-indol-7-yl)-1-oxoisoindolin-4-yl)-2-(dimethylamino)acetamide], the IC50 is reported as under 10 nM. `Cc1cnc(Nc2cc(C)n(C)n2)nc1-c1c[nH]c2c(N3Cc4c(NC(=O)C5CCCC5)cccc4C3=O)cccc12` [Example 336, N-(2-(3-(2-((1,5-dimethyl-1H-pyrazol-3-yl)amino)-5-methylpyrimidin-4-yl)-1H-indol-7-yl)-1-oxoisoindolin-4-yl)cyclopentanecarboxamide] gave an IC50 of 10 to 100 nM. In the case of `Cc1cnc(Nc2cc(C)n(C)n2)nc1-c1c[nH]c2c(N3Cc4c(NC(=O)C5CCOCC5)cccc4C3=O)cccc12` [Example 337, N-(2-(3-(2-((1,5-dimethyl-1H-pyrazol-3-yl)amino)-5-methylpyrimidin-4-yl)-1H-indol-7-yl)-1-oxoisoindolin-4-yl)tetrahydro-2H-pyran-4-carboxamide], the IC50 is reported as under 10 nM. `Cc1cnc(Nc2cc(C)n(C)n2)nc1-c1c[nH]c2c(N3Cc4c(NC(=O)c5ccoc5)cccc4C3=O)cccc12` [Example 338, N-(2-(3-(2-((1,5-dimethyl-1H-pyrazol-3-yl)amino)-5-methylpyrimidin-4-yl)-1H-indol-7-yl)-1-oxoisoindolin-4-yl)furan-3-carboxamide] showed an IC50 of 10 to 100 nM. Work on `Cc1cnc(Nc2cc(C)n(C)n2)nc1-c1c[nH]c2c(N3Cc4c(NC(=O)c5cc(O)ncn5)cccc4C3=O)cccc12` [Example 339, N-(2-(3-(2-((1,5-dimethyl-1H-pyrazol-3-yl)amino)-5-methylpyrimidin-4-yl)-1H-indol-7-yl)-1-oxoisoindolin-4-yl)-6-hydroxypyrimidine-4-carboxamide] yielded an IC50 of under 10 nM. For `Cc1cnc(Nc2cc(C)n(C)n2)nc1-c1c[nH]c2c(N3Cc4cccc(NS(=O)(=O)c5ccccc5)c4C3=O)cccc12` [Example 340, N-(2-(3-(2-((1,5-dimethyl-1H-pyrazol-3-yl)amino)-5-methylpyrimidin-4-yl)-1H-indol-7-yl)-3-oxoisoindolin-4-yl)benzenesulfonamide], the IC50 was 100 to 1000 nM.
